Legend:
CXCR4 = CXCR4 (Homo sapiens, UniProt P61073); assay: Ca2+ mobilization in THP-1 cells in response to SDF-1α (fura-2); assay type: cell-based; details: peptide 500 μM preincubated, SDF-1α 100 ng/ml, FIG. 6
Experimental: FIGS. 6A through 6D depict the effect of peptide pre-treatment on the mobilization of intracellular Ca^2+ in THP-1 cells in response to SDF-1α. Cells loaded with fura-2 were preincubated with peptide 15K (FIG. 6C), 15D (FIG. 6B) and 15CW (FIG. 6D) at a final concentration of 500 μM for 3 min prior to stimulation with SDF-1α (100 ng/ml).
THP-1 cells (12×10^6/ml in RPMI 1640 containing 10% FSB) were loaded in the presence of 5 μM fura-2 AM (Molecular Probes, Eugene, Oreg.) at 22° C. for 30 min in the dark. Subsequently, cells were washed three times and resuspended (10^6 cells/ml) in the buffer containing 138 mM sodium chloride, 6 mM potassium chloride, 1 mM calcium chloride, 1 mM magnesium chloride, 10 mM HEPES, pH 7.4,5 mM glucose, and 0.1% bovine serum albumin. 1.93 ml of loaded cells was transferred into a quartz cuvette. 50 μl of a peptide stock solution (2×10^−2 M) was added to the cells, and after 3 min of incubation 20 μl of human SDF-1α (10 μg/ml, PeproTech) was added to a stirred cuvette. The measurements were performed using luminescence spectrophotometer LS50 B (Perkin-Elmer). Ca^2+ mobilization in the cells in response to SDF-1α was measured by analysis of the ratio of fluorescence emitted at 510 nm after sequential excitation at 340 and 380 nm.
The increase of intracellular Ca^2+ concentration mediated by a chemokine receptor in response to a cognate chemokine is a reliable assay for measurement of chemokine agonist activity. The human monocytic cell line THP-1 expresses a high level of CXCR4 and responds well to SDF-1α stimulation (FIG. 6A), so these cells were used to determine whether peptides 15D and 15K could block the activation of CXCR4.

CCR5 = CCR5 (Homo sapiens, UniProt P51681); assay: Competition with 125I-MIP-1β binding to SupT1/CCR5 cells; design: expressed in transfected cells; host or cells: Sup-T1; details: room temperature, 0.1% sodium azide, FIG. 7A
Chain of CCR5 (P51681 whole entry): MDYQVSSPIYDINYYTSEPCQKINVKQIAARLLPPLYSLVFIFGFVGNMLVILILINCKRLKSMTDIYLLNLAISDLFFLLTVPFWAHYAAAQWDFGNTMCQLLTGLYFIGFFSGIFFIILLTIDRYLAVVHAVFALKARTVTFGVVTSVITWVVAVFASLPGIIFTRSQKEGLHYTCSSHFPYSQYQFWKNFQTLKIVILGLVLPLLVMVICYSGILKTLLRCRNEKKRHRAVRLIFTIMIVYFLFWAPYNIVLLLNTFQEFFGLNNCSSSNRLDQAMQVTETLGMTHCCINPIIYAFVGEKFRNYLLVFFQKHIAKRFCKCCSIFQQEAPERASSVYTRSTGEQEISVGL
Experimental: FIGS. 7A through 7C depicts the inhibition of chemokine receptor ligand binding by peptide pre-treatment. FIG. 7A. Effect of pre-treatment with peptides 15K and 15D on the binding of MIP-1β to SupT1/CCR5 cells; FIG. 7B. Effect of pre-treatment with peptides 15K and 1SD on the binding of SDF-1α to CEMx174 cells; and FIG. 7C. Effect of pre-treatment with 15K and control peptide 15GIG on the binding of SDF-1α to CEmx174 cells. Binding studies were performed as described in Materials and Methods.
Binding assays were performed with HEK-CCR5 or HEK CXCR4 in triplicate by adding unlabeled competitor (anti-coreceptor binding peptide or control chemokine) and radiolabeled chemokine, 0.2 ng/ml (^125I-MIP-1β or SDF-1α, specific activity 2000 Ci/mmol, NEN Life Science Products) to a cell suspension (4×10^5 cells in 200 μl) in RPMI 1640 supplemented with 1% bovine serum albumin and 25 mM HEPES pH 8.0 (binding medium). […] The supernatant was aspirated and the cell-associated radioactivity was measured using a 1272 Wallac gamma counter. […] After incubation cells were transferred to the tubes containing 800 μl of 10% sucrose in PBS and harvested by centrifugation, the supematant was aspirated and the cell-associated radioactivity was measured using a 1272 Wallac gamma counter. The data were analyzed by nonlinear regression using the computer program GraphPad Prizm 3.0. […]

Chain of CXCR4 (P61073 whole entry): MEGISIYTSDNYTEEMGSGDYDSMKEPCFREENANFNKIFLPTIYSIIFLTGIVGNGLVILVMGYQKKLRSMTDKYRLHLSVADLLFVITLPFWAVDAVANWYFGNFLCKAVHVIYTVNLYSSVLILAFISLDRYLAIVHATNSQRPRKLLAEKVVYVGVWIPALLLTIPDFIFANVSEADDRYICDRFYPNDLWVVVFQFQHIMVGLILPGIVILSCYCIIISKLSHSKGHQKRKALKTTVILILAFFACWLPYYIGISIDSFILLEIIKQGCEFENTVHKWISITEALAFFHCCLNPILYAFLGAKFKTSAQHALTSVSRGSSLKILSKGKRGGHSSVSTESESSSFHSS

Row | Substance | inhibition of Ca2+ mobilization in response to SDF-1α (CXCR4) | inhibition of MIP-1β binding to CCR5 (CCR5)
1 | I R K A H C N I S R A D W N D [Peptide 15D] | completely inhibited | competitively inhibited chemokine binding
2 | IRKAHCNISRAKWND [Peptide 15K] | inhibited Ca^2+ mobilization although less efficiently than 15D | competitively inhibited chemokine binding

— patent US20060116325A1, “Methods and compositions for inhibiting hiv-coreceptor interactions” (priority 2001, published 2006)
